In paper PMC9782603 (Viruses, 2022):
≈ marks a conversion by molar mass, not a printed value. Read-outs that look alike come from different tables or passages of the source.

Legend:
[1] = tested on: HCV GT 3a (strain S52) replicon; assay: HCV GT 3a subgenomic replicon luciferase antiviral assay in Huh7.5-3a cells; assay type: cell-based; conditions: Hepatitis C virus, GT3A, 72 h; Huh7.5-3a, GT 3a (S52), F-Luc, 3 days; read-out: EC50 HCV Replicon 3a
[2] = tested on: HCV GT 2a; assay: Activity against HCV GT 2a (data not shown); assay type: cell-based
[3] = tested on: HCV GT 4a (strain ED43) replicon; assay: HCV GT 4a subgenomic replicon luciferase antiviral assay in Huh7.5-4a cells; assay type: cell-based; conditions: Hepatitis C virus, GT4A, 72 h; Huh7.5-4a, GT 4a (ED43), F-Luc, 3 days; read-out: EC50 HCV Replicon 4a
[4] = alamarBlue reduction cytotoxicity assay in replicon cells; assay type: cell-based; conditions: human, HCV Replicon 1b cells
[5] = Water solubility by HPLC-UV after 24 h agitation; assay type: physicochemical; conditions: thermodynamic from solid, deionized water, ambient temperature
[6] = tested on: HCV GT 1b subgenomic reporter replicon (strain Con1); assay: HCV GT 1b subgenomic replicon luciferase antiviral assay in Huh5-2 cells; assay type: cell-based; conditions: Huh5-2, GT 1b (Con1), F-Luc, 3 days, read-out: EC50 HCV Replicon 1b
[7] = tested on: HCV GT-1b RNA (Con1 replicon); assay: Viral RNA quantification by RT-qPCR in Huh5-2 replicon cells; assay type: cell-based; conditions: (+) strand HCV RNA by RT-qPCR, Huh5-2 cells, normalized to YWHAZ
[8] = tested on: HCV GT 1b (Con1); assay: Drug combination of 11a with daclatasvir in Huh5-2 replicon cells; assay type: cell-based
[9] = tested on: HCV GT-1b replicon containing Huh-7 cells; parameters: method as in earlier work; conditions: cited from earlier work
[10] = tested on: NS5B; conditions: reported NS5B TP-2 inhibitors, Figure 1; cited from earlier work
[11] = Hepatitis C virus, GT1B, Huh-5-2, 72 h

SMILES | EC50 [1] [µM] | activity against GT 2a [2] | melting point [°C] | EC50 [3] [µM] | CC50 at 3 days [4] [µM] | solubility at 24 h [5] [µg/mL] | EC50 [6, 11] [nM] | EC50 [7] [nM] | Combinatory effect with daclatasvir ([8]; 11a in combination with DCV, Huh5-2, in words) | CDI (coefficient of drug interaction) ([8]; 11a with daclatasvir (DCV), Huh5-2) | CDI ([8]; DCV 30 pM + 11a 0.1 μM, Huh5-2) | CDI ([8]; DCV 30 pM + 11a 1 μM, Huh5-2) | EC50 [6] [nM] | EC50 [9] [nM] | IC50 [10] [nM]
Cc1nc(=O)c2cc(NC(=O)COc3ccc(Cl)cc3)ccc2n1-c1ccccc1 [11b, 2-(4-Chlorophenoxy)-N-(2-methyl-4-oxo-1-phenyl-1,4-dihydroquinazolin-6-yl)acetamide] | 11.7 ± 1.26 | no activity | 254 | > 10 | 99.01 ± 0.09 | 3.5 (≈ 8.34 µM) | 1380 ± 40 |  |  |  |  |  |  |  | 
Cc1ccc(OCC(=O)Nc2ccc3c(c2)c(=O)nc(C)n3-c2ccccc2)cc1 [11a, N-(2-Methyl-4-oxo-1-phenyl-1,4-dihydroquinazolin-6-yl)-2-(p-tolyloxy)acetamide] | > 10 |  | 268 | > 10 | 157.5 ± 0.03 | 2.7 (≈ 6.76 µM) | 984 | 1130 | additive effect | ≈ 1 | 0.949 | 0.995 | 980 ± 60 |  | 
CC1CCC(C(=O)N(c2cc(C#CC(C)(C)C)sc2C(=O)O)C(C)C)CC1 (stereo not drawn) [II] |  |  |  |  |  |  |  |  |  |  |  |  |  | 26 | 86
